Source: patent US20110166097A1, “TAXANE COMPOUNDS FOR TREATING EYE DISEASE” (Osiris Therapeutics, Inc., priority 2008, published 2011)

Columns and labels:
Water solubility = type: physicochemical; details: conjugated to cobalt atom of cobalamin
white blood cells = experiment: Cobalamin-paclitaxel bioconjugate dose study: white blood cell count; type: in vivo; details: mice, about 2 mg/kg, 28 days
Protocol: (§1) The effects on counts of viable circulating endothelial cell precursors and white blood cells are measured after 28 days. Corresponding amounts of the cobalamin-paclitaxel bioconjugate, viable circulating endothelial cell precursors (CEPS), and white blood cells are presented in the Table 1:

[1] = system: choroidal neovascularization by laser burns of the eye; experiment: Choroidal neovascularization model (fluorescein angiography leakage score); type: in vivo; details: rats
Protocol: Groups of 8 rats/dosage group or vehicle are neovascularized by laser burns on the eye. Afterwards, the eye is immediately treated with a cobalamin-paclitaxel bioconjugate prepared in accordance with Example 1 at a dose of 1.5 μg/2 μL, 5.0 μg/2 μL, and 15 μg/2 μL (indicated as B.C. in FIG. 1). The treatment regimen also includes a vehicle and Kenacort Retard® (4% triamcinolone acetonide), as a positive control. Each treatment is scored at 7, 14, and 21 days post-treatment by infusing the eye with fluorescein and scoring the leakage using angiography. A score of 0 indicates no leakage while a score of 3 indicates severe leakage.

[2] = system: viable circulating endothelial cell precursors (CEPS); experiment: Cobalamin-paclitaxel bioconjugate dose study: viable circulating endothelial cell precursors; type: in vivo; details: mice
Protocol: as §1

[3] = system: bFGF-stimulated formation of new blood vessel in the Matrigel plug; experiment: Matrigel plug perfusion in vivo assay; details: mice, 2, 6 and 30 mg/kg (paclitaxel units), oral gavage
Protocol: A Matrigel® plug perfusion in vivo assay is performed to determine the anti-angiogenic efficacy of the cobalamin-paclitaxel bioconjugate (Cob-Pac) of Example 1. The assay uses Matrigel®, a gelatinous protein mixture secreted by mouse tumor cells (BD Biosciences, San Jose, Calif.), to duplicate tissue environments. Matrigel® is liquid at room temperature, but when injected into the animal, forms a solid plug. If a growth vessel stimulant such as basic fibroblast growth factor (bFGF) is mixed with the Matrigel®, the bFGF stimulates the formation of new blood vessel in the plug, which can be monitored in the animal via fluorescence techniques. In the current study, Matrigel® is injected either alone or with bFGF subcutaneously into mice.

[4] = system: choroidal neovascularization lesions; experiment: Lesion study (flat mount evaluation, choroidal neovascularization); type: in vivo, rats; details: after 21 days
Protocol: In another study, flat mount evaluation of the eyes can be carried out at the end of the study because angiography may not provide a full evaluation of the effect of the drug. At the end of the study, the eyes are removed, histologically processed and all lesions can be seen (including those that can not be detected by angiography). Such an evaluation can be used as a better measure of the choroidal neovascularization model.
Dosages used are 1.5 μg/2 μL, 5.0 μg/2 μL, and 15 μg/2 μL. The treatments also include a vehicle and Kenacort Retard® (4% triamcinolone acetonide). After 21 days, the eyes are removed, histologically processed, and the lesion size scored in μm^3.

CC(=O)O[C@H]1C(=O)[C@@]2(C)C([C@H](OC(=O)c3ccccc3)[C@]3(O)C[C@H](OC(=O)[C@H](OC(=O)C[NH+](C)CC[CH2][Co+][N]4/C5=C(/C)C6=N/C(=C\C7=NC(=C(/C)C8=NC(C(C)C4C(CC(N)=O)C5(C)CCC(=O)NCC(C)OP(=O)([O-])OC4C(CO)OC(n5cnc9cc(C)c(C)cc95)C4O)C(C)(CC(N)=O)C8CCC(N)=O)/C(C)(CC(N)=O)C7CCC(N)=O)C(C)(C)C6CCC(N)=O)[C@@H](NC(=O)c4ccccc4)c4ccccc4)C(C)=C1C3(C)C)[C@]1(OC(C)=O)COC1C[C@@H]2O.[Cl-] (stereo partly drawn) [cobalamin-paclitaxel bioconjugate, Cbl-(CH2)3N(CH3)CH2COO-2′-PTX]
solubility (Water solubility): > 100 mg/mL | Toxicity by white blood cell count (white blood cells): no neutropenia | Anti-angiogenic result by angiography leakage score (FIG. 1) ([1]; after 7 days, intermediate and high doses (5.0 μg/2 μL and 15 μg/2 μL) to the eye): show anti-angiogenic results | Anti-angiogenic result by angiography leakage score (FIG. 1) ([1]; after 14 days, high dose (15 μg/2 μL) to the eye): still provides anti-angiogenic benefit | Most effective dose (viable CEPS) ([2]; 28-day dose study, dose as paclitaxel): about 2 mg/kg | Anti-angiogenic effect on viable CEPS ([2]; at each dose (1.5-30 mg/kg), 28 days): marked decrease in viable CEPS | Effect on growth of new blood vessels in Matrigel plug [3]: inhibits the growth of new blood vessels in each instance shown | Number of blood vessel lesions (FIG. 2) ([4]; rats, 1.5, 5.0 and 15 μg/2 μL to the eye): decrease in a concentration dependent manner | Inhibition of new blood vessel growth (lesion study) ([4]; rats, high and medium concentrations (15 and 5.0 μg/2 μL)): efficacious in inhibiting new blood vessel growth
